{"source": "patent US9408853B2", "about": "“Iridium/rhodium anti-cancer compounds” (University of Warwick, priority 2010, dated 2016)", "key": {"SW480 cancer cell line": {"tested_on": "SW480 cancer cell line", "assay": "Cytotoxicity, MTT assay (Brabec group)", "format": "cell-based", "experimental": "(§1) The cytotoxicity test of ZL07, ZL33, ZL38 and ZL54 against A2780, SW480, A549 and CH1 cell lines was performed by Viktor Brabec group (Institute of Biophysics, Academy of Sciences of the Czech Republic). After plating, the cells were treated with ZL07, ZL33, ZL38 and ZL54. After 72h of incubation 10 μl of MTT (2.5 mg/ml; CALBIOCHEM) was added to each well and incubated for 4 h in culture conditions. At the end of the incubation period the medium was removed and the formazan product was dissolved in 100 μl DMSO. The cell viability was evaluated by measurement of the absorbance at 570 nm, using an Absorbance Reader SUNRICE TECAN SCHOELLER. […] All experiments were made in quadruplicate."}, "CH1 cancer cell line": {"tested_on": "CH1 cancer cell line", "assay": "Cytotoxicity, MTT assay (Brabec group)", "format": "cell-based", "experimental": "as §1"}, "A549 cancer cell line": {"tested_on": "A549 cancer cell line", "assay": "Cytotoxicity, MTT assay (Brabec group)", "format": "cell-based", "experimental": "as §1"}, "[1]": {"tested_on": "human ovarian A2780 cancer cells", "assay": "Cancer cell cytotoxicity, SRB assay", "format": "cell-based", "conditions": "24 h exposure, 72 h recovery, SRB; read-out: A2780 IC50", "outline": "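Cells plated at 5000/well were dosed on day 3 with Ir^III complexes (0.05–100 μM, from DMSO stocks diluted into saline and medium) for 24 h. After washout they grew for 72 h in fresh medium before SRB protein staining as a survival read-out. Two independent experiments of three replicates each.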"}, "[2]": {"tested_on": "ca. 60 cell lines within nine tumour type subpanels", "format": "cell-based", "excerpt": "Six complexes, [(η^5-C5Me4C6H4C6H5)Ir(bpy)Cl]PF6 (ZL25, bpy=2,2′-bipyridine), [(η^5-C5Me4C6H5)Ir(phen)Cl]PF6 (ZL33, phen=1,10-phenanthroline), [(η^5-C5Me4C6H4C6H5) Ir(pico)Cl] (ZL43, pico=picolinate), [(η^5-C5Me5)Ir(2-phpy)Cl] (ZL47), [(η^5-C5Me4C6H4C6H5)Ir(2-phPY)(D2O)Cl] (ZL49) and [(η^5-C5Me4C6H4C6H5) Ir(phen)Cl]PF6 (ZL54), were selected by Developmental Therapeutics Program of National Cancer Institute (NCI, U.S.A.) for in vitro screening test, in which 5 complexes except ZL43 are selected for further testing. The five complexes were tested on ca. 60 cell lines within nine tumour type subpanels at five concentrations ranging from 0.01 to 100 μM."}, "9-ethyladenine (9-EtA)": {"tested_on": "9-ethyladenine (9-EtA)", "assay": "Interactions with nucleobases: 9-EtA adduct formation (1H NMR)", "format": "binding", "conditions": "10 min; 1 mM, 1 mol equiv 9-EtA, D2O, 310 K", "outline": "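Complexes (1 mM, equilibrium with aqua adducts) in 5% MeOD-d4/95% D2O were mixed with 1–2 mol equiv 9-EtA in D2O. ¹H NMR spectra were recorded at 310 K at successive time intervals to follow adduct formation.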"}, "[3]": {"assay": "Aqua adduct formation of ZL33 at chloride levels of nucleus, cytoplasm and plasma (1H NMR)", "format": "physicochemical", "conditions": "1 mM in D2O, 310 K", "experimental": "The effects of chloride concentrations typical of blood plasma (100 mM), cell cytoplasm (22.7 mM), and cell nucleus (4 mM) on the aqueous chemistry of ZL33 was investigated. ^1H NMR spectra of ZL33 (1 mM) were recorded within 10 min of sample preparation and after incubation at 310 K for 24 h (FIG. 4). […] (pH* 6.52) or in 22.7 mM [Cl] (pH* 6.72), and only 5% of ZL33A at 4 mM [Cl] (pH* 6.89) after 10 min. No significant change was observed after 24 h, see Table 2."}, "9-ethylguanine (9-EtG)": {"tested_on": "9-ethylguanine (9-EtG)", "assay": "Interactions with nucleobases: 9-EtG adduct formation (1H NMR)", "format": "binding", "conditions": "1 mM, 1 mol equiv 9-EtG (ZL33A: 2 mol equiv), D2O, 310 K", "outline": "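Complexes (1 mM, equilibrium mixture with their aqua adducts) in 5% MeOD-d4/95% D2O mixed with 1–2 mol equiv 9-EtG in D2O. Adduct formation followed by 1H NMR at 310 K over various time intervals.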"}, "[4]": {"conditions": "highest test concentration 130 μM"}}, "note": "Several values for one entry are separate records, joined by “and”; a condition that tells them apart may be missing. Identical values can stand only once.", "data": [{"smiles": "Cc1c(C)c(-c2ccccc2)[c-](C)c1C.F[P-](F)(F)(F)(F)F.[Cl-].[Ir+3].c1cnc2c(c1)ccc1cccnc12", "note": "(stereo not shown) [ZL33, [(η^5-C5Me4C6H5)Ir(phen)Cl]PF6]", "values": [{"measurement": "IC50", "setting": "SW480 cancer cell line; 72 h incubation, MTT", "value": "1.41 ± 0.2", "unit": "µM"}, {"measurement": "times more active than cisplatin", "setting": "SW480 cancer cell line; SW480", "value": "ca. 6.5 times"}, {"measurement": "cytotoxicity towards SW480 (in words)", "setting": "SW480 cancer cell line; [4]", "value": "promising cytotoxicity"}, {"measurement": "IC50", "setting": "CH1 cancer cell line; 72 h incubation, MTT", "value": "1.32 ± 0.3", "unit": "µM"}, {"measurement": "cytotoxicity towards CH1 (in words)", "setting": "CH1 cancer cell line; [4]", "value": "promising cytotoxicity"}, {"measurement": "IC50", "setting": "A549 cancer cell line; 72 h incubation, MTT", "value": "11.5 ± 2.4", "unit": "µM"}, {"measurement": "cytotoxicity towards A549 (in words)", "setting": "A549 cancer cell line; [4]", "value": "promising cytotoxicity"}, {"measurement": "IC50", "setting": "[1]", "value": 6.7, "unit": "µM"}, {"measurement": "CC50", "setting": "[2]", "value": 93.3, "unit": "µM"}, {"measurement": "Mean graph midpoint (MID) TGI", "setting": "[2]; ca. 60 cell lines, 0.01 to 100 μM", "value": 51.3, "unit": "µM"}, {"measurement": "GI50", "setting": "[2]; ca. 60 cell lines, 0.01 to 100 μM, read-out: Mean graph midpoint (MID) GI50", "value": 10.7, "unit": "µM"}, {"measurement": "selectivity among tumour type subpanels (in words)", "setting": "[2]; mean graphs", "value": "selective for leukemia, CNS cancer, melanoma, and prostate cancer"}, {"measurement": "Reaction with 9-EtA, extent of adduct formation", "setting": "9-ethyladenine (9-EtA)", "value": 0, "unit": "%"}, {"measurement": "% aqua adduct of ZL33 (ZL33A)", "setting": "[3]; 4 mM NaCl, t = 10 min", "value": 5, "unit": "%"}, {"measurement": "% aqua adduct of ZL33 (ZL33A)", "setting": "[3]; 4 mM NaCl, t = 24 h", "value": 5, "unit": "%"}, {"measurement": "% aqua adduct of ZL33 (ZL33A)", "setting": "[3]; 22.7 mM NaCl, t = 24 h", "value": 0, "unit": "%"}, {"measurement": "% aqua adduct of ZL33 (ZL33A)", "setting": "[3]; 100 mM NaCl, t = 24 h", "value": 0, "unit": "%"}, {"measurement": "Reaction with 9-EtG, extent of adduct formation", "setting": "9-ethylguanine (9-EtG); 10 min", "value": "15% and 15.5%"}, {"measurement": "Reaction with 9-EtG, extent of adduct formation", "setting": "9-ethylguanine (9-EtG); 24 h", "value": 42.2, "unit": "%"}]}]}
